Reference: PubChem BioAssay (NCI)
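Step 1: Grow cells in 96-well plates. Step 2: Expose to compound for 48 hours at 5 concentrations. Step 3: Interpolate endpoints linearly; if unreached, use highest concentration. TGI marks complete inhibition of growth.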

Assays:
Test in all cases: NCI-60 cell line screen, 48 h
[1] = test system: 786-0 renal
[2] = test system: A498 renal
[3] = test system: A549 NSCLC
[4] = test system: ACHN renal
[5] = test system: CAKI-1 renal
[6] = test system: COLO 205 colon
[7] = test system: DLD-1 colon
[8] = test system: DMS 114 small cell lung
[9] = test system: DMS 273 small cell lung
[10] = test system: EKVX NSCLC
[11] = test system: HCC-2998 colon
[12] = test system: HCT-116 colon
[13] = test system: HCT-15 colon
[14] = test system: HL-60(TB) leukemia
[15] = test system: HOP-62 NSCLC
[16] = test system: HOP-92 NSCLC
[17] = test system: HT29 colon
[18] = test system: IGROV1 ovarian
[19] = test system: K-562 leukemia
[20] = test system: KM12 colon
[21] = test system: KM20L2 colon
[22] = test system: LOX IMVI melanoma
[23] = test system: LXFL 529 NSCLC
[24] = test system: M14 melanoma
[25] = test system: MALME-3M melanoma
[26] = test system: MOLT-4 leukemia
[27] = test system: NCI-H226 lung
[28] = test system: NCI-H23 lung
[29] = test system: NCI-H460 lung
[30] = test system: NCI-H522 lung
[31] = test system: OVCAR-3 ovarian
[32] = test system: OVCAR-4 ovarian
[33] = test system: OVCAR-5 ovarian
[34] = test system: OVCAR-8 ovarian
[35] = test system: RPMI-8226 leukemia
[36] = test system: RXF 393 renal
[37] = test system: RXF-631 renal
[38] = test system: SF-295 CNS
[39] = test system: SF-539 CNS
[40] = test system: SK-MEL-2 melanoma
[41] = test system: SK-MEL-28 melanoma
[42] = test system: SK-MEL-5 melanoma
[43] = test system: SK-OV-3 ovarian
[44] = test system: SN12C renal
[45] = test system: SNB-19 CNS
[46] = test system: SNB-75 CNS
[47] = test system: SNB-78 CNS
[48] = test system: SR leukemia
[49] = test system: SW-620 colon
[50] = test system: TK-10 renal
[51] = test system: U251 CNS
[52] = test system: UACC-257 melanoma
[53] = test system: UACC-62 melanoma
[54] = test system: UO-31 renal
[55] = test system: XF 498 CNS
[56] = test system: HOP-18 NSCLC
[57] = test system: M19-MEL melanoma
[58] = test system: SF-268 CNS
[59] = test system: CCRF-CEM leukemia

`CC1=Nc2ccccc2C12C(c1ccccc1)C(c1ccccc1)C(=O)N1c3ccccc3CC12` (stereo not drawn) was tested, and the TGI [1] was over 100 µM, the TGI [2] was over 100 µM and the TGI [3] was over 100 µM. For the same molecule, the TGI [4] was over 100 µM, the TGI [5] was over 100 µM and the TGI [6] was over 100 µM. The TGI [7] was over 100 µM, the TGI [8] was over 100 µM and the TGI [9] was over 100 µM. For the same molecule, the TGI [10] was over 100 µM, the TGI [11] was over 100 µM and the TGI [12] was over 100 µM. It also gave a TGI [13] of over 100 µM, a TGI [14] of over 100 µM and a TGI [15] of over 100 µM. The TGI [16] was over 100 µM, the TGI [17] was over 100 µM and the TGI [18] was over 100 µM. The TGI [19] was over 100 µM, the TGI [20] was over 100 µM and the TGI [21] was over 100 µM. The TGI [22] was over 100 µM, the TGI [23] was over 100 µM and the TGI [24] was over 100 µM. For the same molecule, the TGI [25] was over 100 µM, the TGI [26] was over 100 µM and the TGI [27] was over 100 µM. It also gave a TGI [28] of over 100 µM, a TGI [29] of over 100 µM and a TGI [30] of over 100 µM. For the same molecule, the TGI [31] was over 100 µM, the TGI [32] was over 100 µM and the TGI [33] was over 100 µM. For the same molecule, the TGI [34] was over 100 µM, the TGI [35] was over 100 µM and the TGI [36] was over 100 µM. For the same molecule, the TGI [37] was over 100 µM, the TGI [38] was over 100 µM and the TGI [39] was over 100 µM. The TGI [40] was over 100 µM, the TGI [41] was over 100 µM and the TGI [42] was over 100 µM. It also gave a TGI [43] of over 100 µM, a TGI [44] of over 100 µM and a TGI [45] of over 100 µM. For the same molecule, the TGI [46] was over 100 µM, the TGI [47] was over 100 µM and the TGI [48] was over 100 µM. The TGI [49] was over 100 µM, the TGI [50] was over 100 µM and the TGI [51] was over 100 µM. The TGI [52] was over 100 µM, the TGI [53] was over 100 µM and the TGI [54] was over 100 µM. For the same molecule, the TGI [55] was 87.2 µM.

With `Nc1nc(=Nc2ccccc2)ss1` the TGI [1] was over 100 µM, the TGI [2] was over 100 µM and the TGI [3] was over 100 µM. For the same molecule, the TGI [4] was over 100 µM, the TGI [5] was over 100 µM and the TGI [6] was over 100 µM. The TGI [7] was over 100 µM, the TGI [8] was over 100 µM and the TGI [9] was over 100 µM. It also gave a TGI [10] of over 100 µM, a TGI [11] of over 100 µM and a TGI [12] of over 100 µM. The TGI [14] was 60.2 µM, the TGI [56] was over 100 µM and the TGI [15] was over 100 µM. The TGI [16] was over 100 µM, the TGI [17] was over 100 µM and the TGI [18] was over 100 µM. It also gave a TGI [19] of over 100 µM, a TGI [20] of over 100 µM and a TGI [21] of over 100 µM. For the same molecule, the TGI [22] was over 100 µM, the TGI [23] was over 100 µM and the TGI [24] was over 100 µM. It also gave a TGI [57] of over 100 µM, a TGI [25] of over 100 µM and a TGI [26] of over 100 µM. The TGI [27] was over 100 µM, the TGI [28] was over 100 µM and the TGI [29] was over 100 µM. For the same molecule, the TGI [30] was over 100 µM, the TGI [31] was over 100 µM and the TGI [32] was over 100 µM. It also gave a TGI [33] of over 100 µM, a TGI [34] of over 100 µM and a TGI [35] of over 100 µM. It also gave a TGI [36] of over 100 µM, a TGI [37] of over 100 µM and a TGI [58] of over 100 µM. The TGI [38] was over 100 µM, the TGI [39] was over 100 µM and the TGI [41] was over 100 µM. The TGI [42] was over 100 µM, the TGI [43] was over 100 µM and the TGI [44] was over 100 µM. The TGI [45] was over 100 µM, the TGI [46] was over 100 µM and the TGI [47] was over 100 µM. For the same molecule, the TGI [48] was over 100 µM, the TGI [49] was over 100 µM and the TGI [50] was over 100 µM. For the same molecule, the TGI [51] was over 100 µM, the TGI [52] was over 100 µM and the TGI [53] was over 100 µM. The TGI [54] was over 100 µM and the TGI [55] was over 100 µM.

Work on `CCCc1c(C(=O)OCC)[nH]c(C(=O)CCC(=O)c2[nH]c(C(=O)OCC)c(CCC)c2C(=O)OCC)c1C(=O)OCC` yielded a TGI [1] of over 100 µM, a TGI [2] of over 100 µM and a TGI [3] of over 100 µM. For the same molecule, the TGI [4] was over 100 µM, the TGI [5] was over 100 µM and the TGI [59] was over 100 µM. It also gave a TGI [6] of over 100 µM, a TGI [7] of over 100 µM and a TGI [8] of over 100 µM. The TGI [9] was over 100 µM, the TGI [10] was over 100 µM and the TGI [11] was over 100 µM. For the same molecule, the TGI [12] was over 100 µM, the TGI [13] was over 100 µM and the TGI [14] was over 100 µM. For the same molecule, the TGI [56] was over 100 µM, the TGI [16] was over 100 µM and the TGI [17] was over 100 µM. It also gave a TGI [18] of over 100 µM, a TGI [19] of over 100 µM and a TGI [20] of over 100 µM. For the same molecule, the TGI [21] was over 100 µM, the TGI [22] was over 100 µM and the TGI [23] was over 100 µM. The TGI [24] was over 100 µM, the TGI [57] was over 100 µM and the TGI [25] was over 100 µM. The TGI [26] was over 100 µM, the TGI [27] was over 100 µM and the TGI [28] was over 100 µM. For the same molecule, the TGI [29] was over 100 µM, the TGI [30] was over 100 µM and the TGI [31] was over 100 µM. It also gave a TGI [32] of over 100 µM, a TGI [33] of over 100 µM and a TGI [34] of over 100 µM. It also gave a TGI [35] of over 100 µM, a TGI [36] of over 100 µM and a TGI [58] of over 100 µM. The TGI [38] was over 100 µM, the TGI [39] was over 100 µM and the TGI [40] was over 100 µM. The TGI [41] was over 100 µM, the TGI [42] was over 100 µM and the TGI [43] was over 100 µM. For the same molecule, the TGI [44] was over 100 µM, the TGI [45] was over 100 µM and the TGI [46] was 62.5 µM. For the same molecule, the TGI [47] was over 100 µM, the TGI [48] was over 100 µM and the TGI [49] was over 100 µM. For the same molecule, the TGI [50] was over 100 µM, the TGI [51] was over 100 µM and the TGI [52] was over 100 µM. It also gave a TGI [53] of over 100 µM, a TGI [54] of over 100 µM and a TGI [55] of over 100 µM.
